In paper PMC11331127 (Proceedings of the National Academy of Sciences of the …, 2024):

Legend:
Format in all cases: cell-based
[1] = target: T1, Cx26 (Homo sapiens, UniProt P29033); assay: dye uptake rate in Xenopus oocytes; details: transport (dye permeation); resting membrane potential
[2] = target: Cx30 (Homo sapiens, UniProt O95452); assay: dye uptake rate in Xenopus oocytes; details: transport (dye permeation); resting membrane potential
[3] = target: Cx26 (Homo sapiens, UniProt P29033, INS2A); assay: dye uptake rate in Xenopus oocytes; details: transport (dye permeation); resting membrane potential
[4] = target: T1, Cx26; assay: inhibition of DAPI uptake in Xenopus oocytes; details: competitive versus DAPI; resting membrane potential

Chain of Cx30 (O95452 whole entry): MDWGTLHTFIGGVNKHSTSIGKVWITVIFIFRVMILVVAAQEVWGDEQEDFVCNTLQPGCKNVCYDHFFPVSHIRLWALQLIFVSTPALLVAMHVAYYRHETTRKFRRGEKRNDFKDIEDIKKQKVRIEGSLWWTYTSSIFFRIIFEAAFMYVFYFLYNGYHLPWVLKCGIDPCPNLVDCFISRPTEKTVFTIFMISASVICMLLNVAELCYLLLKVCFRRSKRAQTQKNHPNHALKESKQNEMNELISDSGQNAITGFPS

Row | Km [1] | Km [2] | Km [3] | Ki [4] | Substance
1 | 90.1 ± 22 µM | – | – | – | DAPI
2 | – | 6.6 ± 2 µM | 88.6 ± 17.4 µM | ~16.5 µM | ethidium
